# Experimental data reported in patent US12172992B2, “Pyrimidines for degrading Bruton's tyrosine kinase” (AbbVie Inc., priority 2022, dated 2024).
# Target: BTK protein in human whole blood (Homo sapiens (Human), UniProt Q06187)
# Assay: Btk protein in human whole blood MSD ELISA based assay (BTK degradation)
# Format: cell-based
# Details: 6 hours, maximum BTK degradation compared to DMSO only treated samples, read-out: hWB BTK dMax (%)
# Description: Btk protein degradation was tested using an Meso Scale Discovery-ELISA system (MSD-ELISA): (1) Test compounds were added to human whole blood; (2) human whole blood cells treated with test compounds were lysed; (3) lysed cells were treated with capture antibody, an antibody to Btk; (4) lysed cells were treated with […] to Btk; and (5) lysed cells were treated with anti-mouse antibody (tagged).
# Specifically, about 80 μl of fresh human whole blood from healthy donors was transferred into each well of a 96-well V-bottom plate (Costar, Cat No. 3894). Using a TECAN™ D300e Digital Dispenser (Tecan)), 1:4 serially diluted compounds [(8 pt assay) in DMSO solution (final 0.2%) starting at 3 μM top concentration], were added in duplicate. Thereafter, plates were placed in a 37° C. incubator and incubated for 6 hours.
# At the end of incubation, 80 μl of 2×CST lysis buffer (Cell Signaling Technology, Cat No. 9803), prepared from a 10× stock solution, was added per well to lyse the blood. Plates were then sealed with a plate sealer and the samples were frozen overnight at −80° C.
# Total amount of BTK protein remaining in the blood samples after compound treatment was measured using MSD-ELISA. After thawing the frozen plates, blood lysates were mixed thoroughly and transferred to small spot high-bind MSD plates (Meso Scale Discovery, Cat No. L45XB-3) and coated with capturing antibody, rabbit anti-human BTK (D3H5) (Cell Signaling Technology, Cat No. 8547CF). Thereafter, primary detection antibody, mouse anti-human BTK monoclonal antibody, (BD Biosciences, Cat No. 611117) and secondary detection antibody, anti-mouse SULFO-TAG (Meso Scale Discovery, Cat No. R32AC-1) were added. The assay plates were read on an MSD S600 plate reader by the addition of 2×MSD read buffer (Meso Scale Discovery, R92TC-1). All reagent transfers, including blood lysis, was conducted using a Biomed i7 liquid handler. From the dose response curves, DC50 values were calculated by averaging data from duplicate experiments. and Curve fitting was done by non-linear regression using GraphPad Prism. The DC50 values are reported in Table 2 in the hWB BTK DC50 (nM) column The Dmax values represent the maximum amount of BTK degradation observed upon compound treatment compared to DMSO only treated samples. The dMax (%) values are reported in Table 2 in the hWB BTK dMax (%) column.
# Chain of BTK protein in human whole blood (Q06187 whole entry): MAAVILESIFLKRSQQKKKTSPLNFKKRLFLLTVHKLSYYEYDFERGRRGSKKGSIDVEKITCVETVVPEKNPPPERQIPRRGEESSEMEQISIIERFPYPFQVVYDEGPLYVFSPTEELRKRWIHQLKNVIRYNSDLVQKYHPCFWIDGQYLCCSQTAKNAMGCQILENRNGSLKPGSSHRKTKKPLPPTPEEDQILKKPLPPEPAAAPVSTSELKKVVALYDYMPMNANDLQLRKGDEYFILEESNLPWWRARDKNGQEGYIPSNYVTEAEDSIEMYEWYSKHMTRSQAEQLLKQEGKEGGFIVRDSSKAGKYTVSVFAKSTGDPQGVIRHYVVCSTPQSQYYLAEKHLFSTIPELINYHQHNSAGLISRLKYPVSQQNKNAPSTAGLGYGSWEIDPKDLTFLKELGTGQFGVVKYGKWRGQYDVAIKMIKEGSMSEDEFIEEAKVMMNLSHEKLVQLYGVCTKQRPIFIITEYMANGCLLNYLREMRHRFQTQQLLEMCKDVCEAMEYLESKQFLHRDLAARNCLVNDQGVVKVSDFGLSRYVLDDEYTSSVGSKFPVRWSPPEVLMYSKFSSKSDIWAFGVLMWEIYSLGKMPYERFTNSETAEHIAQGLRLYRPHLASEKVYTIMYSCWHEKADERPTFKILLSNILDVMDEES
structure (smiles),measurement,value
"Cc1cc(-c2cc(Nc3ccc(N4CCN(CCc5ccc(N6CCC(=O)NC6=O)cc5)C[C@@H]4C)cn3)ncn2)ccc1[C@@H](C)NC(=O)c1nc(C(C)(C)C)no1 [Example 1, 3-tert-butyl-N-[(1R)-1-{4-[6-({5-[(2S)-4-{2-[4-(2,4-dioxo-1,3-diazinan-1-yl)phenyl]ethyl}-2-methylpiperazin-1-yl]pyridin-2-yl}amino)pyrimidin-4-yl]-2-methylphenyl}ethyl]-1,2,4-oxadiazole-5-carboxamide]",Dmax,100%
